Patent US20220184091A1, “Methods of Treating Cancer with Chk1 Inhibitors” (Sierra Oncology, Inc., priority 2019, published 2022)

Key:
[1] = molecular target: T1, Chk1 (Homo sapiens, UniProt O14757); assay: In vitro Chk1 autophosphorylation and potentiation of genotoxic agents; assay type: cell-based
T1 construct: endogenous in cells

[2] = tested on: human hepatocytes; assay: Stability and metabolites in cryopreserved hepatocytes, human; assay type: in vitro ADME; details: 10 μM, up to 4 hours
Experimental: The formation of SRA737-related metabolites was determined in cryopreserved hepatocytes from human, mouse, rat, dog, minipig and monkey samples after incubation with SRA737 at a nominal concentration of 10 μM for up to 4 hours. […] In the human hepatocyte preparation, approximately 67% of the parent remained after 4 hours of incubation compared to 75% and 7% in the rat and minipig preparations, respectively. Eight human SRA737 metabolites were observed. All SRA737 metabolites formed by human hepatocytes were also formed by monkey hepatocytes. Six metabolites were present at equal or greater abundance in the monkey.

[3] = tested on: H69; assay: Micronuclei assay, H69; assay type: cell-based, human; details: 1 μM, 24 hours or 48 hours
Experimental: H69 cells were cultured as discussed earlier and treated with or without SRA737 (1 μM). Cytochalasin B was added at 20th hour to each culture to give a final concentration of 3 μg/ml and the culture was incubated at 37° C. for up to 24 hrs. After 24 hrs incubation, the cells were centrifuged at 1000 rpm for 5 min. The supernatant was removed and the pellet was treated with weak hypotonic solution (0.075 M KCl/0.9% Saline, 1:9) and incubated at 37° C. for 5 min. After this, the cells were centrifuged and the pellets were fixed in fresh fixative (methanol:acetic acid, 3:1). Cells were dropped onto glass slides were prepared and stained with ProLong® Gold Antifade Mountant with DAPI. In the case of EMT-6 cells, micronuclei formation assays were performed at Phenovista Biosciences, San Diego. The cells were treated with either 1 μM or 5 μM SRA737 for 24h followed by mixing with 4% PFA for 20 minutes at RT directly in the culture wells, washing with PBS and staining with Hoechst (1:1000). The plates were imaged at 40× using the Thermo Fisher Scientific CellInsight CX7 imaging system and the micronuclei algorithm was adjusted to score all nuclei that are <55% of the size of the main nucleus. A total of 25 fields per well were imaged and the data was averaged across 8 replicates.
SRA737 was also evaluated for induced cytogenetic stress using a micronuclei (MN) assay.

[4] = tested on: SCLC cell lines; assay: CellTiter-Glo cell viability assay, SCLC cell line panel; assay type: cell-based, human and murine; details: 96 h
Experimental: SCLC cell lines were incubated with dimethyl sulfoxide (vehicle control), SRA737 or Gemcitabine for 96 hours at nine distinct concentrations, with the maximum dose being 10 μM. A CellTiter-Glo luminescent cell viability assay (Promega) was performed after 96 hours of treatment as per the manufacturer's specifications. IC50 values were estimated using Drexplorer, as previously described (Tong P, Coombes K R, Johnson F M, Byers L A, Diao L, Liu D D, Lee J J, Heymach J V, Wang J. drexplorer: A tool to explore dose-response relationships and drug-drug interactions. Bioinformatics. 2015 May 15; 31(10):1692-4.)
To investigate the in vitro activity of SRA737, a panel of 51 SCLC cell lines, including one murine derived model, and a panel of NSCLC, pancreatic, colon and bladder cancer cell lines were screened.

[5] = molecular target: T2, Chk1 S296 autophosphorylation (Homo sapiens, UniProt O14757); assay: Gemcitabine-induced Chk1 S296 autophosphorylation in HT29 tumor xenografts (western blotting); assay type: in vivo, mouse; details: mice bearing HT29 xenografts; oral, 24 hours after gemcitabine 100 mg/kg IV
T2 construct: mice bearing HT29 tumor xenografts were administered; endogenous in cells; host or cells: HT29 human colon cancer xenografts in mice
T2 sequence (O14757 whole entry): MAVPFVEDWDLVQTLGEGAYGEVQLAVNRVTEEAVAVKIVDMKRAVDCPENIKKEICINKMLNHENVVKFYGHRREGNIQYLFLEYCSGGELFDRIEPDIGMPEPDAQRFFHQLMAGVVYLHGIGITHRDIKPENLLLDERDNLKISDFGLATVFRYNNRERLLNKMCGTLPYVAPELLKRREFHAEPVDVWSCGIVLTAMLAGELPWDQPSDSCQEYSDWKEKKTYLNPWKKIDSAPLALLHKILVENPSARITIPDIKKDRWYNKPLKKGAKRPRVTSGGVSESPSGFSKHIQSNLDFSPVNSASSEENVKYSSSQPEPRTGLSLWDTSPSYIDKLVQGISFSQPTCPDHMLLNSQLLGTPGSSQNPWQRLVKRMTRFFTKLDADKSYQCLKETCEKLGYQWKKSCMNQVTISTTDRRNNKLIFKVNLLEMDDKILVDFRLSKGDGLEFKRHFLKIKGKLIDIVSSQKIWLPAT
Experimental: The effect of SRA737 on Gemcitabine induced Chk1 S296 autophosphorylation was assessed as described in Walton et al. (Oncotarget. 2016 Jan. 19; 7(3): 2329-2342), herein incorporated by reference for all it teaches. Briefly, mice bearing HT29 tumor xenografts were administered (i) vehicle control or (ii) gemcitabine (100 mg/kg in saline, IV) or (iii) a combination of SRA737 (12.5, 25, 50 or 100 mg/kg in DTPW, oral) and gemcitabine (100 mg/kg) with SRA737 administered 24 hours following gemcitabine administration (n=3 per time point per treatment). […] Exposure in the tumor was greater than 10-fold higher than in plasma. The circulating plasma concentration at this 24-hour timepoint corresponded to a free drug concentration of approximately 6 nM (2 ng/mL) based on plasma protein binding in mice of 94%.

[6] = Excretion of SRA737 in mice; assay type: in vivo, mouse; details: 24-hour collection
Experimental: The excretion of SRA737 has been studied in mice and rats administered SRA737 at either 5 mg/kg IV or 10 mg/kg orally. Urine and feces were collected for a 24-hour period after dosing. In mice, renal excretion of intact SRA737 was consistently low (less than 10% of dose) after both oral and IV administration. Following IV administration of SRA737, less than 8% of the dose was recovered as intact drug in the feces while after oral administration this figure was less than 3%. Excretion of intact SRA737 was lower in the rat than in the mouse with <1% of dose excreted renally over 24 hours and less than 1.5% of dose excreted into the feces over 24 hours.

[7] = tested on: 5637; assay: Cell viability, bladder cancer line 5637; assay type: cell-based
[8] = tested on: STING pathway; assay: Immunoblot of STING pathway proteins in resected RPP tumors; assay type: in vivo, mouse; details: RPP tumors resected at Day 21
Experimental: Western blot analysis was performed using SDS-PAGE followed by transfer to nitrocellulose membrane using the BioRad Gel system. Membranes were incubated in the following primary antibodies (1:1000) overnight: PD-L1 (CST), total and phospho- (S366) STING (CST), total and phospho- (S396) IRF3 (CST), phospho-YH2AX (CST) and Actin (Sigma). Secondary anti-rabbit, HRP-linked antibodies were purchased from Cell Signaling Biosciences and detected using the Chemidoc imaging system mage-captured with Image Studio Version 3.1 software.

T1 sequence (O14757 whole entry, species assumed): as the sequence (O14757 whole entry) above

Question: Which “potentiation of the cytotoxicity of genotoxic chemotherapeutic agents and targeted agents” value [1] does the source give for `N#Cc1cnc(Nc2cc(NCC3CNCCO3)c(C(F)(F)F)cn2)cn1` (stereo not shown) [SRA737, 5-[[4-[[morpholin-2-yl]methylamino]-5-(trifluoromethyl)-2-pyridyl]amino]pyrazine-2-carbonitrile] here?
Answer: Its value is “dose-dependent potentiation”.

Question: And the “human SRA737 metabolites observed” value [2]?
Answer: The value was “Eight”.

Question: And the micronuclei formation [3]?
Answer: The micronuclei formation was “led to micronuclei formation”.

Question: What about the IC50 ([4]; SCLC cell lines classified resistant (n=35)) of the same compound?
Answer: Its IC50 is over 5 µM.

Question: And the IC50 ([4]; SCLC cell lines classified sensitive (n=15))?
Answer: The IC50 was under 5 µM.

Question: What about the “SRA737 doses at which inhibition of pS296 Chk1 was observed” value [5] of the same compound?
Answer: The value was “greater than or equal to 12.5 mg/kg”.

Question: What about the “dose recovered as intact drug in the feces” value ([6]; IV administration) of the same compound?
Answer: The value was “less than 8 % of dose”.

Question: And the “dose recovered as intact drug in the feces” value ([6]; oral administration)?
Answer: Its value is “less than 3 % of dose”.

Question: What about the IC50 [7] of the same compound?
Answer: The IC50 was 2.1 µM.

Question: What about the “STING pathway incl. pSTING_S366, pTBK1_S172, cGAS, pIRF3_S396 in tumors” value [8] of the same compound?
Answer: Its value is “significant activation of the STING pathway”.
